Test system: Meloidogyne incognita
Assay: Meloidogyne incognita test: gall rating on cucumber plants in pots after soil application
Format: in vivo
Set-up: key: 0: no galls; 1: very few small galls; 2: numerous small galls; 3: numerous small galls of which some are grown together; 4: numerous small and some big galls; 25% of roots severely galled; 6: 50% of roots severely galled; 75% of roots severely galled; 8: no healthy roots but plant is still green; 9: roots rotting and plant dying; 10: plant and roots dead
Conditions: 1000 ppm applied to soil inoculated with 5000 eggs & J2s; cucumber seedlings; rated 30 days after application; 0-10 scale (Zeck 1971); untreated check up to 8
Experimental: Meloidogyne incognita Test:
The trial pots were filled with soil containing a mixture of sand:soil:cocopeat in a ratio of 1:1:1. To the soil of each pot 5 mL of a nematode suspension (Meloidogyne incognita, mix of 5000 eggs & J2s) was added. One hour later the respective test compound at the stated concentration was applied to each pot. 10 days old cucumber seedlings were transplanted into the pots one day after the application. The cucumber plants were allowed to grow at a temperature of 27° C. under greenhouse conditions. The evaluation of the gall rating was recorded 30 days after the application. The plants were carefully uprooted and the roots were thoroughly washed. The gall rating was done on a 0-10 scale as described by Zeck (1971) and shown below: • 0=no galls • 1=very few small galls • 2=numerous small galls • 3=numerous small galls of which some are grown together • 4=numerous small and some big galls • 5=25% of roots severely galled • 6=50% of roots severely galled • 7=75% of roots severely galled • 8=no healthy roots but plant is still green • 9=roots rotting and plant dying • 10=plant and roots dead

Row | Compound | gall rating scale
1 | Cc1cc(S(=O)(=O)NC(=O)c2nnn(-c3ccc(Cl)cc3Cl)c2C)c(C)cc1Cl [Compound 280, N-((4-chloro-2,5-dimethylphenyl)sulfonyl)-1-(2,4-dichlorophenyl)-5-methyl-1H-1,2,3-triazole-4-carboxamide] | 4
2 | Cc1c(C(=O)NS(=O)(=O)c2c(F)cc(F)cc2F)nnn1-c1ccc(Cl)cc1Cl [Compound 281, 1-(2,4-dichlorophenyl)-5-methyl-N-((2,4,6-trifluorophenyl)sulfonyl)-1H-1,2,3-triazole-4-carboxamide] | 4
3 | CCc1c(C(=O)NS(=O)(=O)c2cc(C(F)(F)F)ccc2Cl)nnn1-c1ccc(OC(F)(F)F)cc1Cl [Compound 311, 1-(2-chloro-4-(trifluoromethoxy)phenyl)-N-((2-chloro-5-(trifluoromethyl)phenyl)sulfonyl)-5-ethyl-1H-1,2,3-triazole-4-carboxamide] | 4
4 | Cc1c(C(=O)NS(=O)(=O)c2cc(C(F)(F)F)ccc2Cl)nnn1-c1ccc(C#N)cc1Cl [Compound 315] | 4
5 | Cc1c(C(=O)NS(=O)(=O)c2cc(Cl)ccc2Cl)nnn1-c1ccc(C#N)cc1Cl [Compound 316, 1-(2-chloro-4-cyanophenyl)-N-((2,5-dichlorophenyl)sulfonyl)-5-methyl-1H-1,2,3-triazole-4-carboxamide] | 4
6 | Cc1ccc(C)c(S(=O)(=O)NC(=O)c2nnn(-c3ccc(C#N)cc3Cl)c2C)c1 [Compound 328] | 4
7 | O=C(NS(=O)(=O)c1ccccc1C(F)(F)F)c1nnn(-c2cc(Cl)ccc2Cl)c1C(F)(F)F [Compound 335, 1-(2,5-dichlorophenyl)-5-(trifluoromethyl)-N-((2-(trifluoromethyl)phenyl)sulfonyl)-1H-1,2,3-triazole-4-carboxamide] | 4
8 | CCc1c(C(=O)NS(=O)(=O)c2cc(OC)ccc2Cl)nnn1-c1ccc(OC(F)(F)F)cc1Cl [Compound 336, 1-(2-chloro-4-(trifluoromethoxy)phenyl)-N-((2-chloro-5-methoxyphenyl)sulfonyl)-5-ethyl-1H-1,2,3-triazole-4-carboxamide] | 4
9 | CCc1c(C(=O)NS(=O)(=O)c2cc(C)ccc2C)nnn1-c1ccc(OC(F)(F)F)cc1Cl [Compound 337, 1-(2-chloro-4-(trifluoromethoxy)phenyl)-N-((2,5-dimethylphenyl)sulfonyl)-5-ethyl-1H-1,2,3-triazole-4-carboxamide] | 4
10 | CCc1c(C(=O)NS(=O)(=O)c2ccccc2Cl)nnn1-c1ccc(OC(F)(F)F)cc1Cl [Compound 338, 1-(2-chloro-4-(trifluoromethoxy)phenyl)-N-((2-chlorophenyl)sulfonyl)-5-ethyl-1H-1,2,3-triazole-4-carboxamide] | 4
11 | CCc1c(C(=O)NS(=O)(=O)c2ccccc2F)nnn1-c1ccc(OC(F)(F)F)cc1Cl [Compound 339, 1-(2-chloro-4-(trifluoromethoxy)phenyl)-5-ethyl-N-((2-fluorophenyl)sulfonyl)-1H-1,2,3-triazole-4-carboxamide] | 4
12 | O=C(NS(=O)(=O)c1cc(C(F)(F)F)ccc1Cl)c1nnn(-c2ccc(F)cc2Cl)c1C(F)(F)F [Compound 364, 1-(2-chloro-4-fluorophenyl)-N-((2-chloro-5-(trifluoromethyl)phenyl)sulfonyl)-5-(trifluoromethyl)-1H-1,2,3-triazole-4-carboxamide] | 4
13 | O=C(NS(=O)(=O)c1ccccc1OC(F)(F)F)c1nnn(-c2cc(Cl)ccc2Cl)c1C(F)(F)F [Compound 370, 1-(2,5-dichlorophenyl)-N-((2-(trifluoromethoxy)phenyl)sulfonyl)-5-(trifluoromethyl)-1H-1,2,3-triazole-4-carboxamide] | 4
14 | O=C(NS(=O)(=O)c1cc(Cl)ccc1Cl)c1nnn(-c2cc(Cl)ccc2Cl)c1C(F)(F)F [Compound 371, 1-(2,5-dichlorophenyl)-N-((2,5-dichlorophenyl)sulfonyl)-5-(trifluoromethyl)-1H-1,2,3-triazole-4-carboxamide] | 4
15 | CCc1c(C(=O)NS(=O)(=O)c2ccccc2F)nnn1-c1ccc(F)cc1Cl [Compound 378, 1-(2-chloro-4-fluorophenyl)-5-ethyl-N-((2-fluorophenyl)sulfonyl)-1H-1,2,3-triazole-4-carboxamide] | 4
16 | Cc1ccc(C)c(S(=O)(=O)NC(=O)c2nnn(-c3ccc(C#N)cc3Cl)c2C(F)(F)F)c1 [Compound 389, 1-(2-chloro-4-cyanophenyl)-N-((2,5-dimethylphenyl)sulfonyl)-5-(trifluoromethyl)-1H-1,2,3-triazole-4-carboxamide] | 4
17 | N#Cc1ccc(-n2nnc(C(=O)NS(=O)(=O)c3cc(C(F)(F)F)ccc3C(F)(F)F)c2C(F)(F)F)c(Cl)c1 [Compound 390, N-((2,5-bis(trifluoromethyl)phenyl)sulfonyl)-1-(2-chloro-4-cyanophenyl)-5-(trifluoromethyl)-1H-1,2,3-triazole-4-carboxamide] | 4
18 | N#Cc1ccc(-n2nnc(C(=O)NS(=O)(=O)c3ccccc3C(F)(F)F)c2C(F)(F)F)c(Cl)c1 [Compound 394, 1-(2-chloro-4-cyanophenyl)-5-(trifluoromethyl)-N-((2-(trifluoromethyl)phenyl)sulfonyl)-1H-1,2,3-triazole-4-carboxamide] | 4
19 | N#Cc1ccc(-n2nnc(C(=O)NS(=O)(=O)c3ccccc3OC(F)(F)F)c2C(F)(F)F)c(Cl)c1 [Compound 395, 1-(2-chloro-4-cyanophenyl)-N-((2-(trifluoromethoxy)phenyl)sulfonyl)-5-(trifluoromethyl)-1H-1,2,3-triazole-4-carboxamide] | 4
20 | Cc1ccccc1S(=O)(=O)NC(=O)c1nnn(-c2ccc(C#N)cc2Cl)c1C(F)(F)F [Compound 396, 1-(2-chloro-4-cyanophenyl)-N-(o-tolylsulfonyl)-5-(trifluoromethyl)-1H-1,2,3-triazole-4-carboxamide] | 4

Row | Compound | gall rating scale
21 | Cc1c(C(=O)NS(=O)(=O)c2cc(Cl)ccc2Cl)nnn1-c1ccc(C#N)cc1F [Compound 410] | 4
22 | Cc1c(C(=O)NS(=O)(=O)c2ccc(F)cc2F)nnn1-c1ccc(C#N)cc1F [Compound 413] | 4
23 | Cc1c(C(=O)NS(=O)(=O)c2ccccc2F)nnn1-c1ccc(C#N)cc1F [Compound 415] | 4
24 | Cc1c(C(=O)NS(=O)(=O)c2cc(C(F)(F)F)ccc2C(F)(F)F)nnn1-c1c(Cl)cc(Cl)cc1Cl [Compound 430] | 4
25 | Cc1c(C(=O)NS(=O)(=O)c2cc(C(F)(F)F)ccc2Br)nnn1-c1ccc(Cl)cc1F [Compound 432] | 4
26 | Cc1ccc(C)c(S(=O)(=O)NC(=O)c2nnn(-c3ccc(Cl)cc3F)c2C)c1 [Compound 433] | 4
27 | Cc1c(C(=O)NS(=O)(=O)c2cc(C(F)(F)F)ccc2C(F)(F)F)nnn1-c1ccc(Cl)cc1F [Compound 441] | 4
28 | Cc1c(C(=O)NS(=O)(=O)c2ccccc2C(F)(F)F)nnn1-c1ccc(Cl)cc1F [Compound 443] | 4
29 | Cc1c(C(=O)NS(=O)(=O)c2ccccc2F)nnn1-c1ccc(Cl)cc1F [Compound 445] | 4
30 | Cc1c(C(=O)NS(=O)(=O)c2cc(C(F)(F)F)ccc2Cl)nnn1-c1ccc(Cl)cc1F [Compound 446] | 4
31 | Cc1c(C(=O)NS(=O)(=O)c2cc(C(F)(F)F)ccc2Br)nnn1-c1ccc(C#N)cc1Cl [Compound 458] | 4
32 | Cc1ccccc1S(=O)(=O)NC(=O)c1nnn(-c2ccc(C#N)cc2Cl)c1C [Compound 459] | 4
33 | Cc1cc(S(=O)(=O)NC(=O)c2nnn(-c3ccc(C#N)cc3Cl)c2C)c(C)cc1Cl [Compound 460] | 4
34 | Cc1c(C(=O)NS(=O)(=O)c2cc(Cl)ccc2F)nnn1-c1ccc(C#N)cc1Cl [Compound 497] | 4
35 | Cc1c(C(=O)NS(=O)(=O)c2ccc(Cl)c(F)c2)nnn1-c1ccc(C#N)cc1Cl [Compound 499] | 4
36 | Cc1c(Cl)cccc1S(=O)(=O)NC(=O)c1nnn(-c2ccc(C#N)cc2Cl)c1C [Compound 513] | 4
37 | Cc1ccc(F)cc1S(=O)(=O)NC(=O)c1nnn(-c2ccc(C#N)cc2Cl)c1C [Compound 516, 1-(2-chloro-4-cyanophenyl)-N-((5-fluoro-2-methylphenyl)sulfonyl)-5-methyl-1H-1,2,3-triazole-4-carboxamide] | 4
38 | Cc1ccc(C)c(S(=O)(=O)NC(=O)c2nnn(-c3ccc(C#N)cc3F)c2C(F)(F)F)c1 [Compound 536, 1-(4-cyano-2-fluorophenyl)-N-((2,5-dimethylphenyl)sulfonyl)-5-(trifluoromethyl)-1H-1,2,3-triazole-4-carboxamide] | 4
39 | COc1ccc(Cl)c(S(=O)(=O)NC(=O)c2nnn(-c3ccc(C#N)cc3F)c2C(F)(F)F)c1 [Compound 538, N-((2-chloro-5-methoxyphenyl)sulfonyl)-1-(4-cyano-2-fluorophenyl)-5-(trifluoromethyl)-1H-1,2,3-triazole-4-carboxamide] | 4

From patent US20250129031A1, “1,2,3-TRIAZOLE CARBONYL SULFONYLAMIDE COMPOUNDS AND USE THEREOF” (PI INDUSTRIES LTD., priority 2022, published 2025)
